Source: ChEMBL document CHEMBL3044631, “Synthesis of 2-[4,5-dimethyl-1-(phenylamino)-1H-imidazol-2-ylthio]-N-(thiazole-2-yl)acetamide derivatives and their anticancer activities” (2013)

Tests used:
Format in all cases: functional
SF-268 = assay: Anticancer activity against Homo sapiens (human) SF268 cells assessed as cell growth promotion at 10 uM after 48 hr by SRB assay
HOP-92 = assay: Anticancer activity against Homo sapiens (human) HOP92 cells assessed as cell growth promotion at 10 uM after 48 hr by SRB assay
ACHN = assay: Anticancer activity against Homo sapiens (human) ACHN cells assessed as cell growth promotion at 10 uM after 48 hr by SRB assay
HCT-15 = assay: Anticancer activity against Homo sapiens (human) HCT15 cells assessed as cell growth promotion at 10 uM after 48 hr by SRB assay
COLO 205 = assay: Anticancer activity against Homo sapiens (human) COLO205 cells assessed as cell growth promotion at 10 uM after 48 hr by SRB assay
HOP-62 = assay: Anticancer activity against Homo sapiens (human) HOP62 cells assessed as cell growth promotion at 10 uM after 48 hr by SRB assay
NCI-H226 = assay: Anticancer activity against Homo sapiens (human) NCI-H226 cells assessed as cell growth promotion at 10 uM after 48 hr by SRB assay
Malme-3M = assay: Anticancer activity against Homo sapiens (human) MALME-3M cells assessed as cell growth promotion at 10 uM after 48 hr by SRB assay
SK-MEL-5 = assay: Anticancer activity against Homo sapiens (human) SK-MEL-5 cells assessed as cell growth promotion at 10 uM after 48 hr by SRB assay
OVCAR-3 = assay: Anticancer activity against Homo sapiens (human) OVCAR3 cells assessed as cell growth promotion at 10 uM after 48 hr by SRB assay
OVCAR-8 = assay: Anticancer activity against Homo sapiens (human) OVCAR8 cells assessed as cell growth promotion at 10 uM after 48 hr by SRB assay
EKVX = assay: Anticancer activity against Homo sapiens (human) EKVX cells assessed as cell growth promotion at 10 uM after 48 hr by SRB assay
RPMI-8226 = assay: Anticancer activity against Homo sapiens (human) RPMI8226 cells assessed as cell growth promotion at 10 uM after 48 hr by SRB assay
NCI-H322M = assay: Anticancer activity against Homo sapiens (human) NCI-H322M cells assessed as cell growth promotion at 10 uM after 48 hr by SRB assay
UACC-62 = assay: Anticancer activity against Homo sapiens (human) UACC62 cells assessed as cell growth promotion at 10 uM after 48 hr by SRB assay
MDA-MB-231 = assay: Anticancer activity against Homo sapiens (human) MDA-MB-231/ATCC cells assessed as cell growth promotion at 10 uM after 48 hr by SRB assay
DU-145 = assay: Anticancer activity against Homo sapiens (human) DU145 cells assessed as cell growth promotion at 10 uM after 48 hr by SRB assay
PC-3 = assay: Anticancer activity against Homo sapiens (human) PC3 cells assessed as cell growth promotion at 10 uM after 48 hr by SRB assay
786-0 = assay: Anticancer activity against Homo sapiens (human) 786-0 cells assessed as cell growth promotion at 10 uM after 48 hr by SRB assay
SF-539 = assay: Anticancer activity against Homo sapiens (human) SF539 cells assessed as cell growth promotion at 10 uM after 48 hr by SRB assay
NCI-H23 = assay: Anticancer activity against Homo sapiens (human) NCI-H23 cells assessed as cell growth promotion at 10 uM after 48 hr by SRB assay
A498 = assay: Anticancer activity against Homo sapiens (human) A498 cells assessed as cell growth promotion at 10 uM after 48 hr by SRB assay
UACC-257 = assay: Anticancer activity against Homo sapiens (human) UACC257 cells assessed as cell growth promotion at 10 uM after 48 hr by SRB assay
SF-295 = assay: Anticancer activity against Homo sapiens (human) SF295 cells assessed as cell growth promotion at 10 uM after 48 hr by SRB assay
HCC 2998 = assay: Anticancer activity against Homo sapiens (human) HCC2998 cells assessed as cell growth promotion at 10 uM after 48 hr by SRB assay
TK-10 = assay: Anticancer activity against Homo sapiens (human) TK10 cells assessed as cell growth promotion at 10 uM after 48 hr by SRB assay
SK-MEL-2 = assay: Anticancer activity against Homo sapiens (human) SK-MEL-2 cells assessed as cell growth promotion at 10 uM after 48 hr by SRB assay
OVCAR-4 = assay: Anticancer activity against Homo sapiens (human) OVCAR4 cells assessed as cell growth promotion at 10 uM after 48 hr by SRB assay
OVCAR-5 = assay: Anticancer activity against Homo sapiens (human) OVCAR5 cells assessed as cell growth promotion at 10 uM after 48 hr by SRB assay
LOX IMVI = assay: Anticancer activity against Homo sapiens (human) LOXIMVI cells assessed as cell growth promotion at 10 uM after 48 hr by SRB assay
T47D = assay: Anticancer activity against Homo sapiens (human) T47D cells assessed as cell growth promotion at 10 uM after 48 hr by SRB assay
M14 = assay: Anticancer activity against Homo sapiens (human) M14 cells assessed as cell growth promotion at 10 uM after 48 hr by SRB assay
UO-31 = assay: Anticancer activity against Homo sapiens (human) UO31 cells assessed as cell growth promotion at 10 uM after 48 hr by SRB assay
MCF7 = assay: Anticancer activity against Homo sapiens (human) MCF7 cells assessed as cell growth promotion at 10 uM after 48 hr by SRB assay
SN12C = assay: Anticancer activity against Homo sapiens (human) SN12C cells assessed as cell growth promotion at 10 uM after 48 hr by SRB assay
KM12 = assay: Anticancer activity against Homo sapiens (human) KM12 cells assessed as cell growth promotion at 10 uM after 48 hr by SRB assay
MDA-MB-435 = assay: Anticancer activity against Homo sapiens (human) MDA-MB-435 cells assessed as cell growth promotion at 10 uM after 48 hr by SRB assay
NCI-H522 = assay: Anticancer activity against Homo sapiens (human) NCI-H522 cells assessed as cell growth promotion at 10 uM after 48 hr by SRB assay
RXF 393 = assay: Anticancer activity against Homo sapiens (human) RXF393 cells assessed as cell growth promotion at 10 uM after 48 hr by SRB assay
HL-60(TB) = assay: Anticancer activity against Homo sapiens (human) HL-60(TB) cells assessed as cell growth promotion at 10 uM after 48 hr by SRB assay

| SMILES | Activity (SF-268) [%] | Activity (ACHN) [%] | Activity (HCT-15) [%] | Activity (COLO 205) [%] | Activity (HOP-62) [%] | Activity (NCI-H226) [%] | Activity (Malme-3M) [%] | Activity (SK-MEL-5) [%] | Activity (OVCAR-3) [%] | Activity (OVCAR-8) [%] | Activity (EKVX) [%] | Activity (NCI-H322M) [%] | Activity (UACC-62) [%] | Activity (MDA-MB-231) [%] | Activity (DU-145) [%] | Activity (PC-3) [%] | Activity (786-0) [%] | Activity (SF-539) [%] | Activity (NCI-H23) [%] | Activity (A498) [%] | further results |
| --- | --- | --- | --- | --- | --- | --- | --- | --- | --- | --- | --- | --- | --- | --- | --- | --- | --- | --- | --- | --- | --- |
| COc1ccc(Nn2c(SCC(=O)Nc3nc(-c4ccc(Cl)cc4)cs3)nc(C)c2C)cc1 | 66.13 | 52.04 | 59.76 | 79.56 | 100.44 | 60.46 | 99.15 | -21.47 | 60.75 | 43.88 | 41.94 | 111.9 | 49.53 | 79.71 | 79.62 | 35.69 | 59.54 | 79.14 | 31.88 | 69.49 | Activity (HOP-92): 38.65%; Activity (RPMI-8226): 35.7%; Activity (UACC-257): 48.91%; Activity (SF-295): 43.89%; Activity (HCC 2998): 54.24%; Activity (TK-10): 68.5%; Activity (SK-MEL-2): 90.48%; Activity (OVCAR-4): 30.81%; Activity (OVCAR-5): 111.33%; Activity (LOX IMVI): 38.91%; Activity (T47D): 39.43%; Activity (M14): 62.46%; Activity (UO-31): 39.41%; Activity (MCF7): 16.16%; Activity (SN12C): 67.16%; Activity (KM12): 43.08%; Activity (MDA-MB-435): 50.36%; Activity (NCI-H522): 66.22% |
| Cc1nc(SCC(=O)Nc2nccs2)n(Nc2ccc(Cl)cc2)c1C | 112.74 | 104.69 | 102.77 | 121.19 | 88.3 | 93.51 | 140.83 | 84.95 | 117.12 | 104.9 | 123.2 | 131.8 | 104.39 | 98.69 | 122.72 | 103.63 | 111.66 | 90.1 | 109.41 | 101.93 | Activity (HOP-92): 96.74%; Activity (RPMI-8226): 104.54%; Activity (RXF 393): 91.41%; Activity (HL-60(TB)): 95.84%; Activity (UACC-257): 107.66%; Activity (SF-295): 97.66%; Activity (HCC 2998): 115.62%; Activity (TK-10): 120.55%; Activity (SK-MEL-2): 116.11%; Activity (OVCAR-4): 102.19%; Activity (OVCAR-5): 87.36%; Activity (LOX IMVI): 101.8%; Activity (T47D): 91.74%; Activity (M14): 97.83%; Activity (UO-31): 86.43%; Activity (MCF7): 104.33%; Activity (SN12C): 96.39%; Activity (KM12): 113.75%; Activity (MDA-MB-435): 110.71%; Activity (NCI-H522): 111.97% |
| Cc1nc(SCC(=O)Nc2nc(-c3ccc(Cl)cc3)cs2)n(Nc2ccccc2)c1C | 56.4 | 49.37 | 57.63 | 65.21 | 48.49 | 59.84 | 99.3 | 10.19 | 61.29 | 31.91 | 34.55 | 70.81 | 34.83 | 48.83 | 65.41 | 59.13 | 54.27 | 35.42 | 12.2 | 74.31 | Activity (RXF 393): 72.14%; Activity (HL-60(TB)): 42.07%; Activity (UACC-257): 46.91%; Activity (SF-295): 31.02%; Activity (HCC 2998): 69.51%; Activity (TK-10): 56.83%; Activity (SK-MEL-2): 84.99%; Activity (OVCAR-4): 35.93%; Activity (OVCAR-5): 65.75%; Activity (LOX IMVI): 26.08%; Activity (T47D): 26.64%; Activity (M14): 47.55%; Activity (UO-31): 32.86%; Activity (MCF7): 27.14%; Activity (SN12C): 39.25%; Activity (KM12): 57.14%; Activity (MDA-MB-435): 41%; Activity (NCI-H522): 47.28% |
| Cc1nc(SCC(=O)Nc2nccs2)n(Nc2ccccc2)c1C | 106.58 | 95.27 | 97.16 | 117.71 | 83.75 | 100.29 | 121.77 | 94.75 | 116.22 | 95.17 | 115.74 | 118.03 | 94.24 | 95.5 | 116.36 | 93.56 | 103.46 | 86.84 | 97.67 | 101.7 | Activity (HOP-92): 76.48%; Activity (RPMI-8226): 100.95%; Activity (RXF 393): 83.96%; Activity (HL-60(TB)): 96.52%; Activity (UACC-257): 94.83%; Activity (SF-295): 86.6%; Activity (HCC 2998): 101.96%; Activity (TK-10): 111.75%; Activity (SK-MEL-2): 106.73%; Activity (OVCAR-4): 103.25%; Activity (OVCAR-5): 80.93%; Activity (LOX IMVI): 99.28%; Activity (T47D): 90.52%; Activity (M14): 96.9%; Activity (UO-31): 84.18%; Activity (MCF7): 98.76%; Activity (SN12C): 94.4%; Activity (KM12): 109.29%; Activity (MDA-MB-435): 104.58%; Activity (NCI-H522): 102.09% |
